Key:
Vitis vinifera [1] = experiment: Toxicity in Vitis vinifera cv. Pinot noir assessed as effect on gas exchanges at 1.2 to 30 mM measured 10 days post compound application; format: organism-based; conditions: in vivo, 240 h, 30000 µM
Vitis vinifera [2] = experiment: Increase in […] CO2 level in Vitis vinifera cv. Pinot noir at 1.2 mM measured 7 days post compound application; format: ADME, organism-based; conditions: in vivo, 168 h, 1200 µM
Vitis vinifera [3] = experiment: Increase in […] CO2 level in Vitis vinifera cv. Pinot noir at 30 mM measured 7 days post compound application; format: ADME, organism-based; conditions: in vivo, 168 h, 30000 µM
Vitis vinifera [4] = experiment: Increase in […] CO2 level in Vitis vinifera cv. Pinot noir at 6 mM measured 7 days post compound application; format: ADME, organism-based; conditions: in vivo, 168 h, 6000 µM
[5] = Inhibition of photosynthesis in Vitis vinifera cv. Pinot noir assessed as reduction in net photosynthetic rate at 6 mM measured 7 days post compound application; format: organism-based; conditions: in vivo
[6] = Inhibition of photosynthesis in Vitis vinifera cv. Pinot noir assessed as reduction in net photosynthetic rate at 30 mM measured 7 days post compound application; format: organism-based; conditions: in vivo
Vitis vinifera [7] = experiment: Effect on net photosynthetic rate in Vitis vinifera cv. Pinot noir at 1.2 to 30 mM measured 2 to 4 days post compound application; format: ADME, organism-based; conditions: in vivo, 30000 µM
Vitis vinifera [8] = experiment: Effect on […] CO2 level in Vitis vinifera cv. Pinot noir at 1.2 to 30 mM measured 1 day post compound application; format: ADME, organism-based; conditions: in vivo, 24 h, 30000 µM
Vitis vinifera [9] = experiment: Effect on stomatal conductance in Vitis vinifera cv. Pinot noir at 1.2 to 30 mM measured 1 day post compound application; format: ADME, organism-based; conditions: in vivo, 24 h, 30000 µM
Vitis vinifera [10] = experiment: Inhibition of photosynthesis in Vitis vinifera cv. Pinot noir assessed as reduction in net photosynthetic rate at 30 mM measured 1 day post compound application; format: organism-based; conditions: in vivo, 24 h, 30000 µM
Vitis vinifera [11] = experiment: Inhibition of photosynthesis in Vitis vinifera cv. Pinot noir assessed as reduction in net photosynthetic rate at 6 mM measured 1 day post compound application; format: organism-based; conditions: in vivo, 24 h, 6000 µM
[12] = Inhibition of photosynthesis in Vitis vinifera cv. Pinot noir assessed as reduction in net photosynthetic rate at 1.2 mM measured 1 day post compound application; format: organism-based; conditions: in vivo
Vitis vinifera [13] = experiment: Inhibition of photosynthesis in Vitis vinifera cv. Pinot noir assessed as ratio of apparent quantum yield of photo system 2 to apparent quantum yield yield of CO2 fixation at 30 mM measured 7 days post compound application (reference value: 10 +/- 1.7 no unit); format: organism-based; conditions: in vivo, 168 h, 30000 µM
Vitis vinifera [14] = experiment: Inhibition of photosynthesis in Vitis vinifera cv. Pinot noir assessed as in vivo maximum rate of rubisco carboxylation at 6 mM measured 7 days post compound application (reference value: 42.8 +/- 3.2 umol/m2/s); format: organism-based; conditions: 168 h, 6000 µM
Vitis vinifera [15] = experiment: Inhibition of photosynthesis in Vitis vinifera cv. Pinot noir assessed as in vivo maximum rate of rubisco carboxylation at 1.2 mM measured 7 days post compound application (reference value: 42.8 +/- 3.2 umol/m2/s); format: organism-based; conditions: 168 h, 1200 µM
Vitis vinifera [16] = experiment: Inhibition of photosynthesis in Vitis vinifera cv. Pinot noir assessed as intercellular CO2 concentration-saturated net CO2 assimilation rate at 30 mM measured 7 days post compound application (reference value: 11.3 +/- 0.8 umol/m2/s); format: organism-based; conditions: in vivo, 168 h, 30000 µM
Vitis vinifera [17] = experiment: Inhibition of photosynthesis in Vitis vinifera cv. Pinot noir assessed as intercellular CO2 concentration-saturated net CO2 assimilation rate at 6 mM measured 7 days post compound application (reference value: 11.3 +/- 0.8 umol/m2/s); format: organism-based; conditions: in vivo, 168 h, 6000 µM
Vitis vinifera [18] = experiment: Inhibition of photosynthesis in Vitis vinifera cv. Pinot noir assessed as intercellular CO2 concentration-saturated net CO2 assimilation rate at 1.2 mM measured 7 days post compound application (reference value: 11.3 +/- 0.8 umol/m2/s); format: organism-based; conditions: in vivo, 168 h, 1200 µM
Vitis vinifera [19] = experiment: Inhibition of photosynthesis in Vitis vinifera cv. Pinot noir assessed as apparent quantum yield of CO2 fixation at 1.2 mM measured 7 days post compound application (reference value: 0.07 +/- 0.01 no unit) umol/m2/s); format: organism-based; conditions: in vivo, 168 h, 1200 µM
Vitis vinifera [20] = experiment: Inhibition of photosynthesis in Vitis vinifera cv. Pinot noir assessed as mitochondrial respiration in the light at 1.2 mM measured 7 days post compound application (reference value: 3.2 +/- 0.5 umol/m2/s); format: organism-based; conditions: in vivo, 168 h, 1200 µM
Vitis vinifera [21] = experiment: Inhibition of photosynthesis in Vitis vinifera cv. Pinot noir assessed as CO2 compensation point at 1.2 mM measured 7 days post compound application (reference value: 74.8 +/- 12.7 umol/mol); format: organism-based; conditions: in vivo, 168 h, 1200 µM
Vitis vinifera [22] = experiment: Effect on total nonphotochemical quenching in Vitis vinifera cv. Pinot noir at 1.2 to 30 mM measured 7 days post compound application; format: ADME, organism-based; conditions: in vivo, 168 h, 30000 µM
Vitis vinifera [23] = experiment: Effect on photochemical quenching in Vitis vinifera cv. Pinot noir at 1.2 to 30 mM measured 7 days post compound application; format: ADME, organism-based; conditions: in vivo, 168 h, 30000 µM
Vitis vinifera [24] = experiment: Inhibition of photosynthesis in Vitis vinifera cv. Pinot noir assessed as ratio of apparent quantum yield of photo system 2 to apparent quantum yield yield of CO2 fixation at 6 mM measured 7 days post compound application (reference value: 10 +/- 1.7 no unit); format: organism-based; conditions: in vivo, 168 h, 6000 µM
Vitis vinifera [25] = experiment: Inhibition of photosynthesis in Vitis vinifera cv. Pinot noir assessed as ratio of apparent quantum yield of photo system 2 to apparent quantum yield yield of CO2 fixation at 1.2 mM measured 7 days post compound application (reference value: 10 +/- 1.7 no unit); format: organism-based; conditions: in vivo, 168 h, 1200 µM
Vitis vinifera [26] = experiment: Inhibition of photosynthesis in Vitis vinifera cv. Pinot noir assessed as PPFD-saturated net CO2 assimilation rate at 30 mM measured 7 days post compound application (reference value: 8.9 +/- 1.5 umol/m2/s); format: organism-based; conditions: in vivo, 168 h, 30000 µM
Vitis vinifera [27] = experiment: Inhibition of photosynthesis in Vitis vinifera cv. Pinot noir assessed as PPFD-saturated net CO2 assimilation rate at 6 mM measured 7 days post compound application (reference value: 8.9 +/- 1.5 umol/m2/s); format: organism-based; conditions: in vivo, 168 h, 6000 µM

Q: Which Activity (Vitis vinifera [1]) does the source give for `N#Cc1c[nH]cc1-c1cccc2c1OC(F)(F)O2` [FLUDIOXONIL] here?
A: The Activity was “Non-toxic”.

Q: What about the Activity (Vitis vinifera [2]) of the same compound?
A: The Activity was 13%.

Q: And the Activity (Vitis vinifera [3])?
A: The Activity was 20%.

Q: What about the Activity (Vitis vinifera [4]) of the same compound?
A: The Activity was 20%.

Q: What about the inhibition at 168 h, 6000 µM [5] of the same compound?
A: The inhibition at 168 h, 6000 µM was 65%.

Q: And the inhibition at 168 h, 30000 µM [6]?
A: The inhibition at 168 h, 30000 µM was 38%.

Q: What about the Activity (Vitis vinifera [7]) of the same compound?
A: The Activity was “Non-toxic”.

Q: What about the Activity (Vitis vinifera [8]) of the same compound?
A: Its Activity is “Non-toxic”.

Q: What about the Activity (Vitis vinifera [9]) of the same compound?
A: The Activity was “Non-toxic”.

Q: What about the Activity (Vitis vinifera [10]) of the same compound?
A: The Activity was “Toxic”.

Q: And the Activity (Vitis vinifera [11])?
A: The Activity was “Toxic”.

Q: And the inhibition at 24 h, 1200 µM [12]?
A: Its inhibition at 24 h, 1200 µM is 30%.

Q: And the Ratio (Vitis vinifera [13])?
A: The Ratio was 19.2.

Q: And the Activity (Vitis vinifera [14])?
A: Its Activity is 44.1 micromol/m2/s.

Q: And the Activity (Vitis vinifera [15])?
A: The Activity was 38 micromol/m2/s.

Q: And the Activity (Vitis vinifera [16])?
A: Its Activity is 12.2 micromol/m2/s.

Q: What about the Activity (Vitis vinifera [17]) of the same compound?
A: Its Activity is 11.5 micromol/m2/s.

Q: And the Activity (Vitis vinifera [18])?
A: Its Activity is 11.3 micromol/m2/s.

Q: What about the Activity (Vitis vinifera [19]) of the same compound?
A: Its Activity is 0.01.

Q: And the Activity (Vitis vinifera [20])?
A: Its Activity is 3.2 micromol/m2/s.

Q: And the Activity (Vitis vinifera [21])?
A: The Activity was 84.9 umol/mol.

Q: What about the Activity (Vitis vinifera [22]) of the same compound?
A: Its Activity is “Non-toxic”.

Q: And the Activity (Vitis vinifera [23])?
A: Its Activity is “Non-toxic”.

Q: What about the Ratio (Vitis vinifera [24]) of the same compound?
A: Its Ratio is 16.3.

Q: What about the Ratio (Vitis vinifera [25]) of the same compound?
A: Its Ratio is 17.4.

Q: What about the Activity (Vitis vinifera [26]) of the same compound?
A: The Activity was 9.4 micromol/m2/s.

Q: What about the Activity (Vitis vinifera [27]) of the same compound?
A: The Activity was 7.6 micromol/m2/s.

— ChEMBL document CHEMBL3044966, “Photosynthesis limitations of grapevine after treatment with the fungicide fludioxonil” (J Agric Food Chem, 2008)
